# Measured values as given in US20060094013A1, “Salt-inducible kinases 2 and use thereof” (priority 2002, published 2006).
# Key:
# [1] = molecular target: T1, mouse SIK2 (Mus musculus, UniProt Q8CFH6); experiment: Protein-phosphorylating activity of purified GST-mSIK2 (auto-phosphorylation and GST-Syntide 2 phosphorylation, 32P, SDS-PAGE); type: biochemical
# T1 construct: the full-length cDNA in the protein translation region of SIK2 was amplified by the RT-PCR method; made in house; host or cells: COS-7
# Experimental: The obtained GST-mSIK2 was mixed with 1 μl of GST-Syntide 2 (Lin et al., as describe above) and [^32P]-[…] (37 kBq; manufactured by ICN) in the presence of a 50 mM Tris-HCl buffer solution (pH 8.0) and 10 mM MnCl2 (20 μl in total). The mixture was allowed to react at 30° C. for 1 hour. The reaction was then terminated by adding 10 μl of an SDS-sample buffer and heating at 100° C. for 5 minutes. 10 μl of the reacted sample was separated using 15% SDS-PAGE, and the SDS-PAGE gel was then dried. The intake of ^32P was detected by exposing it to light for 30 minutes, using an X-ray film (MS-film; manufactured by Kodac). […] For comparison purpose, GST-rat SIK1 and GST-rat SIK1 (K56M) were subjected to the same experiment. Consequently, the same results were obtained.
# A GST-mSIK2 protein that was allowed to express in COS-7 cells and then purified was mixed with DMSO solutions containing 5% DMSO and 5% each of 1, 10, 100 nM staurosporine (Sigma) ina reaction system in the test tube used in Example 3. Thereafter, phosphorylating activity was detected by the SDS-PAGE method, so as to evaluate the inhibition of enzyme activity of mouse SIK2 by staurosporine. […] The auto-phosphorylating activity and GST-Syntide 2-phosphorylating activity of GST-mSIK2 were approximately 30% inhibited even by the single use of DMSO. […] It was inhibited by 1 nM staurosporine until the residual activity became approximately 20%. By 10 nM and 100 nM staurosporines, it was almost 100% inhibited.
# [2] = test system: SIK; experiment: Immunostaining of dexamethasone-induced SIK in 3T3-L1 cells with antibodies specific for the phosphorylation state; type: cell-based
# Experimental: 3T3-L1 cells were inoculated on 96-well plates, and the cells were cultured until they became confluent. The medium placed in such a plate was DMEM/10% FCS. The culture was carried out at 37° C. in 5% CO2. Thereafter, dexamethasone was added to each of the plates, thereby resulting in a concentration of dexamethasone of 1 μM, so that SIK was induced. After 1 hour had passed after the induction, an SIK inhibitor, staurosporine, was added to the plates, thereby resulting in concentrations of 10, 100, and 1,000 nM. Thereafter, the culture was further carried out for 1 hour. […] Subsequently, the cells were added to PBS containing 4% paraformaldehyde, and the mixture was then left at room temperature for 15 minutes, so that the cells were immobilized. Thereafter, the cells were washed with PBS 4 times, and they were then allowed to react with a blocking solution obtained by dissolving 1% skimmed milk in TBST (TBS containing 0.1% Tween 20). Subsequently, 100 μl of antiserum (500 times diluted) containing an antibody binding to SIK1 wherein serine at position 577 is phosphorylated, an antibody binding to SIK1 wherein threonine at position 182 and serine at position 186 are phosphorylated, an anti-SIK antibody, or an antibody binding to SIK1 wherein serine at position 577 is not phosphorylated, was added to the same above blocking solution. The obtained mixture was reacted overnight. After completion of the reaction overnight, an unreacted antibody portion was eliminated by washing with PBS 4 times. A solution obtained by 1,000 times diluting an HRP-labeled anti-rabbit IgG secondary antibody was added to a reaction solution obtained by dissolving 1% skimmed milk in TBS, and the mixture was then reacted at room temperature for 2 hours. Thereafter, the resultant product was washed with PBS 4 times. The antigen-antibody reaction was visualized using Konica Immuno Stain HRP reagent (manufactured by Konica).
# [3] = test system: Gal-CREB (full-length); experiment: Gal4-CREB (full-length) luciferase reporter assay; type: cell-based; conditions: 50 ng/ml
# Experimental: (§1) In addition, CREB was introduced into the N-terminal side of the Gal4 protein of budding yeast (Gal4 DNA binding domain; Gal4DB). Using a plasmid wherein a reporter gene (fire fly luciferase) was introduced downstream of a promoter having a sequence consisting of 5 consecutive Gal4-binding sequences, the ability of DB to transcribe CREB without the medium of CRE was analyzed. In the case of a Gal-CREB (full-length) system, since it has a bZIP domain, the transcription was inhibited by SIK2 and TNFα (refer to FIG. 9B).
# [4] = test system: CRE; experiment: CRE luciferase reporter assay in precursor fat cells 3T3-L1; type: cell-based; conditions: 50 ng/ml; SIK2 not highly expressed
# Experimental: For the purpose of detecting the CRE transcription-suppressing activity of SIK2, using Lipofectoamin 200 reagent (2 μl; manufactured by Invitrogen), 200 ng each of pTarget-SIK2 and pTarget-SIK2 (K49M), together with an expression vector (pTAL-CRE; 200 ng; manufactured by Clontech) in which a luciferase gene is located under the control of CRE, were introduced into precursor fat cells 3T3-L1. Moreover, mSIK2 (S587A) having a destroyed PKA phosphorylated portion, which was predicted to exist in mouse SIK2 domain 3 from the findings regarding rat SIK1, was introduced therein, using oligo DNA represented by SEQ ID NO: 16.
# In the thus produced mSIK2 (S587A), serine at position 587 was substituted with alanine with respect to the full-length SIK2. For correction of introduction efficiency, a vector (pRL-SC40; 30 ng; manufactured by Promega) that allows luciferase derived from Renilla to express under an SV40 promoter was co-introduced therein. 16 hours later, the cells were stimulated with forskolin (50 μM) for 6 hours, so as to activate CRE. Thereafter, the cells were recovered, and the expression level of a reporter gene was analyzed using Dual Luciferase Assay kit (manufactured by Promega).
# The corrected pTAL-CRE-derived activity was divided by the activity derived from pTAL, so as to obtain a specific activity derived from CRE. […]
# [5] = test system: Gal4-CREB(-bZIP); experiment: Gal4-CREB(-bZIP) luciferase reporter assay; type: cell-based; conditions: 50 ng/ml
# Experimental: as §1
# [6] = test system: SIK2 gene; experiment: SIK2 mRNA level after incubation with hormones (Northern blot); type: cell-based; conditions: used singly, 2 hours; insulin 1 μg/ml, cAMP 1 mM, dexamethasone 1 μM
# Experimental: The SIK2 gene was incubated with each of these hormones, and with the mixture consisting of the 3 types of hormones, for 2 hours. Thereafter, the mRNA level of SIK2 was measured. […] The measurement was carried out by the Northern blot analysis using cDNA probes.
# [7] = test system: CRE-suppressing activity of SIK; experiment: CRE activity in cells with PKA and SIK, peptide bound to the GFPC carrier; type: cell-based; conditions: peptide bound to C-terminus of GFP; PKA and SIK present
# Text: GFPC is a C-terminus binding-type green fluorescent protein. GFPC is used as a peptide carrier, wherein a peptide of interest binds to the C-terminus of GFP. […] The grey one is CRE activity obtained when both PKA and SIK exist.
# [8] = molecular target: T2, SIK (Mus musculus, UniProt Q8CFH6); experiment: Phosphorylating activity of GST-SIK2 on Syntide 2 in the presence of a p300 peptide (method of Lin et al.); type: biochemical; conditions: GST-SIK2 expressed in COS-7 cells
# T2 construct: the full-length cDNA in the protein translation region of SIK2 was amplified by the RT-PCR method; made in house; host or cells: COS-7
# Experimental: It was studied whether or not a peptide p300 is phosphorylated by SIK when serine at position 89 in p300 is substituted with alanine (S89A). Moreover, it was also studied whether or not the peptide p300 [84-93 (S89A)] can inhibit the phosphorylating activity of SIK. When the activity of SIK2 was measured by the method of Lin et al., a DMSO solution containing 5% DMSO (dimethyl sulfoxide) and staurosporine was added. SIK2 was allowed to express in the form of a GST binding form in COS-7 cells, and it was then purified using GST-Mirospin kit from Amersham Pharmacia.
# The left lane and the central lane show the results regarding a synthetic substrate (Syntide 2) phosphorylated by SIK.
# [9] = 10, 100, 1,000 nM staurosporine
# T1 sequence (Q8CFH6 whole entry): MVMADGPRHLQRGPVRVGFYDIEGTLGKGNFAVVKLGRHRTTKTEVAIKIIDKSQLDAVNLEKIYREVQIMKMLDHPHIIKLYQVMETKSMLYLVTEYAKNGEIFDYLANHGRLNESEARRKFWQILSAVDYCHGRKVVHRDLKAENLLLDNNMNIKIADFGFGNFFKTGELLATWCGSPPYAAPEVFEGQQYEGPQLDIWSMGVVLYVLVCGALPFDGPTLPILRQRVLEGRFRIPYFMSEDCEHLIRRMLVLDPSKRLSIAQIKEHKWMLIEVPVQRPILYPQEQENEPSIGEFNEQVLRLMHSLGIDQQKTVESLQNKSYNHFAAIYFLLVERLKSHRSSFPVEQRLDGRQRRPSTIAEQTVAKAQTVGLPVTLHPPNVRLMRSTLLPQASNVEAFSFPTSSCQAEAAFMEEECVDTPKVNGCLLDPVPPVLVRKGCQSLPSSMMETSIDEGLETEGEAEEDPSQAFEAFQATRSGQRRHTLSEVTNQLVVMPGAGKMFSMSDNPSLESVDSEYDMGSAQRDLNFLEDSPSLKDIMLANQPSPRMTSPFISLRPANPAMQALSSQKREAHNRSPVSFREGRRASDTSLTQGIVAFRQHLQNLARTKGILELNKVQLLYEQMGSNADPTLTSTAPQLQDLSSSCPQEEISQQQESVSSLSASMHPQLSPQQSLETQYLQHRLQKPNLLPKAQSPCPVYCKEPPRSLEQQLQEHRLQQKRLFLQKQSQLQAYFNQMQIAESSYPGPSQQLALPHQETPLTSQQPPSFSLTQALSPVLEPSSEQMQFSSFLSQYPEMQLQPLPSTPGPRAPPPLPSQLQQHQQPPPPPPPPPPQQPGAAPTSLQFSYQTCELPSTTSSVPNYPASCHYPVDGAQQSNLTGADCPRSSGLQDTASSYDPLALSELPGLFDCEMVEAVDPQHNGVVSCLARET
# T2 sequence (Q8CFH6 whole entry): as above
compound,measurement,setting,value
"C[S+](C)[O-] [DMSO, dimethyl sulfoxide]",inhibition of auto-phosphorylating activity and GST-Syntide 2-phosphorylating activity of GST-mSIK2,[1]; single use of DMSO (5% DMSO),approximately 30%
CN[C@@H]1C[C@H]2O[C@@](C)([C@@H]1OC)n1c3ccccc3c3c4c(c5c6ccccc6n2c5c31)C(=O)NC4 [staurosporine],residual phosphorylating activity of SIK2,[1]; 1 nM staurosporine in 5% DMSO solution,approximately 20%
same,inhibition at 0.01 µM,[1]; 10 nM staurosporine,~100%
same,inhibition at 0.1 µM,[1]; 100 nM staurosporine,~100%
same,concentration dependence of inhibition of phosphorylating activity of SIK2,"[1]; 1, 10, 100 nM",concentration-dependently inhibited
same,reaction of anti-phosphorylation Ser577 antibody with SIK,"[2]; 10 nM staurosporine, 1 hour",significantly decreased
same,reaction of anti-phosphorylation Thr182-Ser186 antibody with SIK,"[2]; 10 nM staurosporine, 1 hour",significantly decreased
same,reaction of SIK with anti-SIK1 antibody,[2]; [9],not significantly decreased
same,reactivity of antibody binding to SIK1 wherein serine at position 577 is not phosphorylated,[2]; [9],increased depending on the concentration of staurosporine
TNFα,effect on transcription in Gal-CREB (full-length) system,[3],inhibited
same,effect on activation of CRE due to PKA,[4],sufficiently suppressed the activation of CRE due to PKA
same,effect on transcription in Gal4-CREB(-bZIP) system,[5],suppressed
insulin,effect on transcription of the SIK2 gene (mRNA level),[6],promoted the transcription of the SIK2 gene
p300 [84-93 (S89A)]: peptide p300 residues 84-93 with serine at position 89 substituted with alanine; bound to GFPC carrier in the cell test (LLRSGASPNL),effect on CRE-suppressing activity of SIK in cells,[7],inhibits the CRE-suppressing activity of SIK in cells
same,effect on enzyme activity of SIK (Syntide 2 phosphorylation),[8],inhibits the enzyme activity of SIK
